Laboratory results: patent US10961200B2, “Small molecule inhibitors of lactate dehydrogenase and methods of use thereof” (THE UNITED STATES OF AMERICA, AS REPRESENTED BY THE …, priority 2014, dated 2021)
Where two headings read alike, the source gives them in different places.

Molecular target: Human LDHA (Homo sapiens (Human), UniProt P00338)
Experiment: human LDHA primary biochemical assay (resazurin/diaphorase coupled, fluorescence)
From the text: Test compounds were placed in a Greiner Bio-One (Monroe, N.C.) 1536-well black solid bottom assay plate. 200 millimolar (mM) Tris HCl, pH 7.4, 100 micromolar […] EDTA and 0.01% TWEEN-20™, final concentration, was used as the assay buffer. The LDHA reagent was 2 nanomolar (nM) Human LDHA (Meridian Life Science, Inc., Memphis, Tenn.), final concentration, in assay buffer.

[1] = read-out: Inhibitory activity IC50
[2] = LDHA inhibitory activity, assay of Example 1, activity level classes

Row | Structure (SMILES) | IC50 [2] [µM] | IC50 [1] [µM]
1 | O=C(O)c1csc(-n2nc(-c3ccc(F)cc3F)cc2O)n1 [Compound 97, 2-(3-(2,4-difluorophenyl)-5-hydroxy-1H-pyrazol-1-yl)thiazole-4-carboxylic acid] |  | > 57
2 | CCOC(=O)OC(C)OC(=O)c1csc(-n2nc(-c3ccc(F)c(F)c3)cc2OC(C)OC(=O)OCC)n1 (stereo not drawn) [Compound 98, 1-((ethoxycarbonyl)oxy)ethyl 2-(3-(3,4-difluorophenyl)-5-(1-((ethoxycarbonyl)oxy)ethoxy)-1H-pyrazol-1-yl)thiazole-4-carboxylate] | > 57 | 
3 | O=C(O)c1csc(-n2nc(-c3c(F)cccc3F)cc2O)n1 [Compound 100, 2-(3-(2,6-difluorophenyl)-5-hydroxy-1H-pyrazol-1-yl)thiazole-4-carboxylic acid] | > 57 | 
4 | O=C(O)c1csc(-n2nc(-c3cc(F)ccc3F)cc2O)n1 [Compound 102, 2-(3-(2,5-difluorophenyl)-5-hydroxy-1H-pyrazol-1-yl)thiazole-4-carboxylic acid] | > 57 | 
5 | CCOC(=O)OC(C)OC(=O)c1csc(-n2nc(-c3ccc(F)c(F)c3)cc2O)n1 (stereo not drawn) [Compound 105, 1-((ethoxycarbonyl)oxy)ethyl 2-(3-(3,4-difluorophenyl)-5-hydroxy-1H-pyrazol-1-yl)thiazole-4-carboxylate] | > 57 | 
6 | O=C(OCCN1CCOCC1)c1csc(-n2nc(-c3ccc(F)c(F)c3)cc2O)n1 [Compound 106, 2-morpholinoethyl 2-(3-(3,4-difluorophenyl)-5-hydroxy-1H-pyrazol-1-yl)thiazole-4-carboxylate] | > 57 | 
7 | CN(C)C(=O)Oc1cc(-c2ccc(F)c(F)c2)nn1-c1nc(C(=O)Oc2ccc3c(c2)CCC3)cs1 [Compound 107, 2,3-dihydro-1H-inden-5-yl 2-(3-(3,4-difluorophenyl)-5-((dimethylcarbamoyl)oxy)-1H-pyrazol-1-yl)thiazole-4-carboxylate] | > 57 | 
8 | O=C(Oc1ccc2c(c1)CCC2)c1csc(-n2nc(-c3ccc(F)c(F)c3)cc2O)n1 [Compound 108, 2,3-dihydro-1H-inden-5-yl 2-(3-(3,4-difluorophenyl)-5-hydroxy-1H-pyrazol-1-yl)thiazole-4-carboxylate] | > 57 | 
9 | CC(C)C(=O)OCOC(=O)c1csc(-n2nc(-c3ccc(F)c(F)c3)cc2O)n1 [Compound 109, (isobutyryloxy)methyl 2-(3-(3,4-difluorophenyl)-5-hydroxy-1H-pyrazol-1-yl)thiazole-4-carboxylate] | > 57 | 
10 | O=C(O)c1csc(-n2nc(-c3ccc(NS(=O)(=O)C4CC4)c(F)c3)cc2O)n1 [Compound 111, 2-(3-(4-(cyclopropanesulfonamido)-3-fluorophenyl)-5-hydroxy-1H-pyrazol-1-yl)thiazole-4-carboxylic acid] | > 57 | 
11 | O=C(O)c1csc(-n2nc(-c3ccc(CCNS(=O)(=O)C4CC4)c(F)c3)cc2O)n1 [Compound 112, 2-(3-(4-(2-(cyclopropanesulfonamido)ethyl)-3-fluorophenyl)-5-hydroxy-1H-pyrazol-1-yl)thiazole-4-carboxylic acid] | > 57 | 
12 | O=C(O)c1csc(-n2nc(-c3ccc(F)c(F)c3)c(Cc3ccccc3)c2O)n1 [Compound 113, 2-(4-benzyl-3-(3,4-difluorophenyl)-5-hydroxy-1H-pyrazol-1-yl)thiazole-4-carboxylic acid] | > 57 | 
13 | COC(=O)c1csc2c1c(=O)[nH]c1cc(-c3ccc(F)c(F)c3)nn12 [Compound 115, methyl 2-(3,4-difluorophenyl)-5-oxo-4,5-dihydropyrazolo[1,5-a]thieno[3,2-e]pyrimidine-6-carboxylate] | > 57 | 
14 | O=C(O)c1csc2c1c(=O)[nH]c1cc(-c3ccc(F)c(F)c3)nn12 [Compound 116, 2-(3,4-difluorophenyl)-5-oxo-4,5-dihydropyrazolo[1,5-a]thieno[3,2-e]pyrimidine-6-carboxylic acid] | > 57 | 
15 | CCOC(=O)c1csc(-n2nc(-c3ccc(F)c(F)c3)cc2O)n1 [Compound 121, ethyl 2-(3-(3,4-difluorophenyl)-5-hydroxy-1H-pyrazol-1-yl)thiazole-4-carboxylate] | > 57 | 
16 | CS(=O)(=O)NCCc1cc(-c2cc(O)n(-c3nc(C(=O)O)cs3)n2)ccc1F [Compound 122, 2-(3-(4-fluoro-3-(2-(methylsulfonamido)ethyl)phenyl)-5-hydroxy-1H-pyrazol-1-yl)thiazole-4-carboxylic acid] | > 57 | 
17 | CCOC(=O)c1csc(-n2nc(-c3ccc(F)c(F)c3)c(Cc3ccc(S(N)(=O)=O)cc3)c2N)n1 [Compound 123, ethyl 2-(5-amino-3-(3,4-difluorophenyl)-4-(4-sulfamoylbenzyl)-1H-pyrazol-1-yl)thiazole-4-carboxylate] |  | 1 to 57
18 | CNS(=O)(=O)c1ccc(Cc2c(-c3cccc(-c4ccccc4)c3)nn(-c3nc(C(=O)O)cs3)c2O)cc1 [Compound 124, 2-(3-([1,1′-biphenyl]-3-yl)-5-hydroxy-4-(4-(N-methylsulfamoyl)benzyl)-1H-pyrazol-1-yl)thiazole-4-carboxylic acid] | > 57 | 
19 | O=C(O)c1csc(-n2cc(-c3ccc(F)c(F)c3)c3cccc(O)c32)n1 [Compound 125, 2-(3-(3,4-difluorophenyl)-7-hydroxy-1H-indol-1-yl)thiazole-4-carboxylic acid] | > 57 | 

Second part, led by results:

Row | IC50 [2] [µM] | Structure (SMILES) | IC50 [1] [µM]
20 | > 57 | CS(=O)(=O)Nc1cc(-c2cc(O)n(-c3nc(C(=O)O)cs3)n2)ccc1F [Compound 103, 2-(3-(4-fluoro-3-(methylsulfonamido)phenyl)-5-hydroxy-1H-pyrazol-1-yl)thiazole-4-carboxylic acid] | 
21 | > 57 | O=C(O)c1csc(-n2nc(-c3ccc(F)c(Cc4ccccc4)c3)cc2O)n1 [Compound 104, 2-(3-(3-benzyl-4-fluorophenyl)-5-hydroxy-1H-pyrazol-1-yl)thiazole-4-carboxylic acid] | 
22 | > 57 | O=C(O)c1csc(-n2nc(-c3ccc(F)c(S(=O)(=O)NCc4ccccc4)c3)cc2O)n1 [Compound 110, 2-(3-(3-(N-benzylsulfamoyl)-4-fluorophenyl)-5-hydroxy-1H-pyrazol-1-yl)thiazole-4-carboxylic acid] | 
23 | > 57 | CNS(=O)(=O)c1cc(-c2cc(O)n(-c3nc(C(=O)O)cs3)n2)ccc1F [Compound 114, 2-(3-(4-fluoro-3-(N-methylsulfamoyl)phenyl)-5-hydroxy-1H-pyrazol-1-yl)thiazole-4-carboxylic acid] | 
24 | > 57 | CC(C)(C)OC(=O)c1csc(-n2nc(-c3ccc(F)c(F)c3)c(Cc3cccc(S(N)(=O)=O)c3)c2O)n1 [Compound 117, tert-butyl 2-(3-(3,4-difluorophenyl)-5-hydroxy-4-(3-sulfamoylbenzyl)-1H-pyrazol-1-yl)thiazole-4-carboxylate] | 
25 | > 57 | CC(C)(C)OC(=O)c1csc(-n2nc(-c3ccc(F)c(F)c3)c(-c3ccccc3)c2O)n1 [Compound 118, tert-butyl 2-(3-(3,4-difluorophenyl)-5-hydroxy-4-phenyl-1H-pyrazol-1-yl)thiazole-4-carboxylate] | 
26 | > 57 | O=C(O)c1csc(-n2nc(-c3ccc(F)c(F)c3)c3cccc(O)c32)n1 [Compound 119, 2-(3-(3,4-difluorophenyl)-7-hydroxy-1H-indazol-1-yl)thiazole-4-carboxylic acid] | 
27 | > 57 | CC(=O)Nc1c(-c2ccccc2)nn(-c2nc(C(=O)O)cs2)c1O [Compound 126, 2-(4-acetamido-5-hydroxy-3-phenyl-1H-pyrazol-1-yl)thiazole-4-carboxylic acid] | 
28 | > 57 | NC(=O)c1csc(-n2nc(-c3ccccc3)c(Cc3ccc(S(N)(=O)=O)cc3)c2C(F)(F)F)n1 [Compound 127, 2-(3-phenyl-4-(4-sulfamoylbenzyl)-5-(trifluoromethyl)-1H-pyrazol-1-yl)thiazole-4-carboxamide] | 
29 | > 57 | Nc1c(Cc2ccc(S(N)(=O)=O)cc2)c(-c2ccccc2)nn1-c1ccc(=O)[nH]n1 [Compound 128, 4-((5-amino-1-(6-oxo-1,6-dihydropyridazin-3-yl)-3-phenyl-1H-pyrazol-4-yl)methyl)benzenesulfonamide] | 
30 | > 57 | CCOC(=O)c1cccc(-n2nc(-c3ccccc3)c(Cc3ccc(S(N)(=O)=O)cc3)c2N)c1 [Compound 129, ethyl 3-(5-amino-3-phenyl-4-(4-sulfamoylbenzyl)-1H-pyrazol-1-yl)benzoate] | 
31 | > 57 | Nc1c(Cc2ccc(S(N)(=O)=O)cc2)c(-c2ccccc2)nn1-c1cccc(C(=O)O)c1 [Compound 130, 3-(5-amino-3-phenyl-4-(4-sulfamoylbenzyl)-1H-pyrazol-1-yl)benzoic acid] | 
32 | > 57 | Nc1c(Cc2ccc(S(N)(=O)=O)cc2)c(-c2ccccc2)nn1-c1nc(CO)cs1 [Compound 131, 4-((5-amino-1-(4-(hydroxymethyl)thiazol-2-yl)-3-phenyl-1H-pyrazol-4-yl)methyl)benzenesulfonamide] | 
33 | > 57 | NS(=O)(=O)c1ccc(Cc2c(-c3ccccc3)nn(-c3nc(CO)cs3)c2Cc2nnn[nH]2)cc1 [Compound 132, 4-((5-((1H-tetrazol-5-yl)methyl)-1-(4-(hydroxymethyl)thiazol-2-yl)-3-phenyl-1H-pyrazol-4-yl)methyl)benzenesulfonamide] | 
34 | > 57 | COC(=O)c1csc(-n2nc(-c3ccccc3)c(Cc3ccc(S(N)(=O)=O)cc3)c2Cc2nnn[nH]2)n1 [Compound 133] | 
35 | > 57 | CCOC(=O)c1csc(-n2nc(-c3ccccc3)c(Cc3ccc(S(N)(=O)=O)cc3)c2Cc2nnn[nH]2)n1 [Compound 134, ethyl 2-(5-((1H-tetrazol-5-yl)methyl)-3-phenyl-4-(4-sulfamoylbenzyl)-1H-pyrazol-1-yl)thiazole-4-carboxylate] | 
36 | > 57 | CCOC(=O)c1csc(-n2nc(-c3ccccc3)c(Cc3ccc(S(N)(=O)=O)cc3)c2CC#N)n1 [Compound 135, ethyl 2-(5-(cyanomethyl)-3-phenyl-4-(4-sulfamoylbenzyl)-1H-pyrazol-1-yl)thiazole-4-carboxylate] | 
